Experimental data as given in patent US10428081B2, “EGFR inhibitor, preparation method and use thereof” (Shanghai Hansoh Biomedical Co., Ltd., priority 2014, dated 2019).

Columns and labels:
[1] = PK analysis in rats; format: in vivo, Sprague Dawley (SD) rats; details: SD rats, single intragastric administration, 5 mg/10 ml/kg; for AUC(0-t): read-out: AUC0-8; for MRT inf: read-out: MRT0-∞
Protocol: 1.0 ml of intravenous blood was collected and placed in a K2EDTA test tube. The blood was centrifuged at RT 6000 rpm for 5 minutes to isolate the plasma, which was stored at −80° C.
Liquid Chromatography: • Condition of Liquid chromatography Shimadzu LC-20AD pump • Chromatographic column: phenomenex Gemiu 5 μm C18 50×4.6 mm • Mobile phase: Solution A is 0.1% formic acid aqueous solution, and Solution B is acetonitrile • Flow rate: 0.8 mL/min • Elution time: 0-3.5 minutes, the eluent used was as follows:
Condition of mass spectrometer: positive ion electrospray ionization (ESI) mode. • Analysis results of liquid chromatography and mass spectrometry:

[2] = in vivo; details: beagle, dog, po, 2 mg/kg
Protocol: 1. 1.0 ml of intravenous blood was collected and placed in a Heparin test tube. The blood was centrifuged at RT 6000 rpm for 5 minutes to isolate the plasma, which was stored at −80° C.
2. 160 μL of acetonitrile were added to 40 μL of plasma sample for precipitation, and then the mixture was centrifuged at 3500 rpm for 5 minutes.
3. 100 μL of treated solution was taken, and the concentration of the test compound was analyzed by LC/MS/MS. The LC/MS/MS analytical instrument was AB Sciex API 4000.
Liquid Chromatography: • Condition of Liquid chromatography: Shimadzu LC-20AD pump • Chromatographic column: phenomenex Gemiu 5 μm C18 50×4.6 mm • Mobile phase: Solution A is 0.1% formic acid aqueous solution, and Solution B is acetonitrile • Flow rate: 0.8 mL/min • Elution time: 0-3.5 minutes, the eluent used was as follows: […]

[3] = target: wild-type EGFR enzyme (Homo sapiens, UniProt P00533); experiment: Enzymologic experiment of wild-type (WT) EGFR (TR-FRET); format: biochemical; details: ATP 0.1 to 5 uM
How it was run: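 Wild-type EGFR (0.1 to 1 nM final) preincubated with serially diluted compound for 10 minutes at room temperature; reaction stopped with EDTA, then labelled antibody added for 1 hour at room temperature. TR-FRET signal converted to inhibition rates; IC50 from curve fitting across concentrations.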

[4] = target: exon 20 T790M mutant-type EGFR enzyme (Homo sapiens, UniProt P00533, T790M); experiment: Enzymologic experiment of T790M mutant-type EGFR (TR-FRET); format: biochemical; details: for IC50: T790M EGFR enzyme, TR-FRET, ATP 1 to 10 uM; for Selectivity of wild-type/mutant-type: ratio WT IC50 / T790M IC50, enzyme
How it was run: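 Compound dilutions preincubated 10 min at room temperature; reaction ended with EDTA, then labeled antibody added for 1 h at room temperature. Inhibition rates derived from TR-FRET fluorescence signal, and IC50 obtained by curve fitting across concentrations.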

[5] = system: NCI-H1975 cells; experiment: Inhibition of NCI-H1975 cell proliferation (CellTiter-Glo); format: cell-based; details: for IC50: Homo sapiens, NCI-H1975, 72 h, NCI-H1975 cell proliferation, 72 hours, CellTiter-Glo, read-out: EGFR IC50 (nM) H1975; for Selectivity of wild-type/mutant-type: ratio A431 IC50 / H1975 IC50, cells
[6] = system: A431 cells; experiment: Inhibition of A431 cell proliferation (CellTiter-Glo); format: cell-based; details: Homo sapiens, A-431, 72 h, read-out: EGFR IC50 (nM) A431
How it was run: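 Viability read as CellTiter-Glo luminescence; IC50 by curve fitting of inhibition rates.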

[7] = Sprague-Dawley, rat, po, 5 mg/kg, plasma

Chain of exon 20 T790M mutant-type EGFR enzyme (P00533 25-1210 T790M): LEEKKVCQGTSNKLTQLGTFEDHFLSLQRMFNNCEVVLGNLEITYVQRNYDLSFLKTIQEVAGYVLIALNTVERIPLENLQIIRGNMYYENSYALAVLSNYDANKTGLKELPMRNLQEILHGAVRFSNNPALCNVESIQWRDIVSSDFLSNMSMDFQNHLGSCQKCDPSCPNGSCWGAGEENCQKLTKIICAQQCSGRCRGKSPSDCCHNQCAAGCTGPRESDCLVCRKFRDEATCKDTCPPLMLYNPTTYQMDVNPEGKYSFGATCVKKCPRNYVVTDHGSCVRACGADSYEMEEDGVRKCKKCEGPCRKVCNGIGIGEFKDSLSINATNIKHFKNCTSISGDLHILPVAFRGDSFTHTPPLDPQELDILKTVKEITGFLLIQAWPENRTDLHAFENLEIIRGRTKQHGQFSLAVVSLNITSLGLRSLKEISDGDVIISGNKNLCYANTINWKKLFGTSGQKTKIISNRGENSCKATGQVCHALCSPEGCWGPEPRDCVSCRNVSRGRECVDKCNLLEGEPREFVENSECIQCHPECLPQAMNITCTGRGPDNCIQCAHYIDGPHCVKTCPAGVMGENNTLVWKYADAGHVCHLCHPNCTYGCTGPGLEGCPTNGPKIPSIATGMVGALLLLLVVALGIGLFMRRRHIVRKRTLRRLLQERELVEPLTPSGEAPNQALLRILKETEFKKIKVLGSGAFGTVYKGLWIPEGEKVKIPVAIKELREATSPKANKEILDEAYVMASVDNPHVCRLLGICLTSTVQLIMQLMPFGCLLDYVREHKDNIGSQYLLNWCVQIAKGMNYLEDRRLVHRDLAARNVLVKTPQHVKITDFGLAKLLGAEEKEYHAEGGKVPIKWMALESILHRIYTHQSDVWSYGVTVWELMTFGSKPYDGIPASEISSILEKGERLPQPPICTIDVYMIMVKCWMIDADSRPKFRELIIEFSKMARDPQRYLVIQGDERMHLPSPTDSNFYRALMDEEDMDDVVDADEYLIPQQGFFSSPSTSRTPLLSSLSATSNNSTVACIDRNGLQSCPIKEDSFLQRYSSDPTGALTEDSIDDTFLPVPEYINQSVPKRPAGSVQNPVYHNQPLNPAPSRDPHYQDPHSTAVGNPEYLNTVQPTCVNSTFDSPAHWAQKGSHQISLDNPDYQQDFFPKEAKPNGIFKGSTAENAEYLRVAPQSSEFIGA
Chain of wild-type EGFR enzyme (P00533 25-1210): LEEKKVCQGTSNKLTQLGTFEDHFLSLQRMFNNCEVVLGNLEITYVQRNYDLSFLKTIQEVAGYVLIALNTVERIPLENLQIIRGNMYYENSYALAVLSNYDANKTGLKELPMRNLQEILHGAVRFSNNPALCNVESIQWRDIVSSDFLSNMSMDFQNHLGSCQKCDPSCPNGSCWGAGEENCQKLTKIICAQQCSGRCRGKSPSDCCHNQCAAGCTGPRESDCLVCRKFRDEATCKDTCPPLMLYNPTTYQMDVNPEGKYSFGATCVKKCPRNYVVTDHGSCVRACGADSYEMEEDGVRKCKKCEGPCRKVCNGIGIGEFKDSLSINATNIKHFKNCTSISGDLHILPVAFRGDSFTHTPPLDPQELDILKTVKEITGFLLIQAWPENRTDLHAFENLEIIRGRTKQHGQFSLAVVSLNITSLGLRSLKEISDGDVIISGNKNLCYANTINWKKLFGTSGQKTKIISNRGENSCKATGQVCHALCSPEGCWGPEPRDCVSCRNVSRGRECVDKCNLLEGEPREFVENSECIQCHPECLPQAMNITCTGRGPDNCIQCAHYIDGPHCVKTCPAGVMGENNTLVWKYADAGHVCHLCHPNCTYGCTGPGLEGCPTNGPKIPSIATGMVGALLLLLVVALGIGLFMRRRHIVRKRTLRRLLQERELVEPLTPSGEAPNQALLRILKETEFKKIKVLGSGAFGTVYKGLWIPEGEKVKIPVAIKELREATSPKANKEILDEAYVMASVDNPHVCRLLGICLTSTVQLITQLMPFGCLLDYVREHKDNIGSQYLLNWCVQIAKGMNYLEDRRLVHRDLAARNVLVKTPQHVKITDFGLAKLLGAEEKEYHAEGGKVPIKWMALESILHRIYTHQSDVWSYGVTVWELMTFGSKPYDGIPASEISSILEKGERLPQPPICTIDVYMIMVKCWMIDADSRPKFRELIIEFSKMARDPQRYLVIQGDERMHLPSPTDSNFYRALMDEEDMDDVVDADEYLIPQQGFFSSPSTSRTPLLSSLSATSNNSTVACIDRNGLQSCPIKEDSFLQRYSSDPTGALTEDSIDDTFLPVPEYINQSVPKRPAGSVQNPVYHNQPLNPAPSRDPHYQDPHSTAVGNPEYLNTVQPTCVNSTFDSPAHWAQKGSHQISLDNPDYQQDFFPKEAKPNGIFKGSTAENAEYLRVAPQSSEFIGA

Row | SMILES | t1/2 ([1]; plasma) [h] | AUC(0-inf) [1, 7] [ng·h/mL] | Cmax [1, 7] [ng/mL] | Tmax [1, 7] [h] | AUC(0-t) [1, 7] [ng·h/mL] | MRT inf [1, 7] [h] | Cmax [2] [ng/mL] | MRT inf [2] [h] | Tmax [2] [h] | half-life [2] [h] | metabolites in the plasma of rat [1] | half-life [1, 7] [h] | IC50 [3] [nM] | IC50 [4] [nM] | Selectivity of wild-type/mutant-type [4] | AUC(0-inf) [2] [ng·h/mL] | AUC(0-t) [2] [ng·h/mL] | IC50 [5] [nM] | Selectivity of wild-type/mutant-type [5] | IC50 [6] [nM]
1 | C=CC(=O)Nc1cc(Nc2nccc(-c3cn(C)c4ccccc34)n2)c(OC)cc1N(C)CCN(C)C [AZD-9291, reference compound] | 3.8 | 283 | 58.3 | 2 | 278 | 3.9 | 81.4 | 9 | 1 | 5.4 | – | – | – | – | – | – | – | – | – | –
2 | C=CC(=O)Nc1cc(Nc2nccc(-c3cn(C4CC4)c4ccccc34)n2)c(OC)cc1N(C)CCN(C)C [Example 26, N-(5-((4-(1-cyclopropyl-1H-indol-3-yl)pyrimidin-2-yl)amino)-2-((2-(dimethylamino)ethyl)(methyl)amino)-4-methoxyphenyl)acrylamide] | – | 268 | 58.4 | 0.5 | 235 | 3.9 | 528 | 9.2 | 1 | 7 | only one metabolite | 2.3 | 1.89 | 0.49 | 3.9 | 5150 | 4580 | 2.44 | 208.7 | 509
3 | C=CC(=O)Nc1cc(Nc2nccc(-n3ncc4c(OC)cccc43)n2)c(OC)cc1N(C)CCN1CCCC1 [Example 135, N-(4-methoxy-5-((4-(4-methoxy-1H-indazol-1-yl)pyrimidin-2-yl)amino)-2-(methyl(2-(pyrrolidin-1-yl)ethyl)amino)phenyl)acrylamide] | – | – | – | – | – | – | – | – | – | – | – | – | 4.62 | 0.46 | 10.04 | – | – | 7.5 | 59.19 | 444
4 | C=CC(=O)Nc1cc(Nc2nccc(-n3ncc4ccc(OC)cc43)n2)c(OC)cc1N(C)CCN1CCCC1 [Example 136, N-(4-methoxy-5-((4-(6-methoxy-1H-indazol-1-yl)pyrimidin-2-yl)amino)-2-(methyl(2-(pyrrolidin-1-yl)ethyl)amino)phenyl)acrylamide] | – | – | – | – | – | – | – | – | – | – | – | – | 4.33 | 0.78 | 5.55 | – | – | 11.2 | 30.04 | 336
5 | C=CC(=O)Nc1cc(Nc2nccc(-n3ncc4cc(OC)ccc43)n2)c(OC)cc1N(C)CCN1CCCC1 [Example 137, N-(4-methoxy-5-((4-(5-methoxy-1H-indazol-1-yl)pyrimidin-2-yl)amino)-2-(methyl(2-(pyrrolidin-1-yl)ethyl)amino)phenyl)acrylamide] | – | – | – | – | – | – | – | – | – | – | – | – | 6.31 | 1.03 | 6.13 | – | – | 9.52 | 42.70 | 406
6 | C=CC(=O)Nc1cc(Nc2nccc(-n3cnc4cc(OC)ccc43)n2)c(OC)cc1N(C)CCN1CCCC1 [Example 138, N-(4-methoxy-5-((4-(5-methoxy-1H-benzo[d]imidazol-1-yl)pyrimidin-2-yl)amino)-2-(methyl(2-(pyrrolidin-1-yl)ethyl)amino)phenyl)acrylamide] | – | – | – | – | – | – | – | – | – | – | – | – | 4.92 | 0.5 | 9.84 | – | – | 3.37 | 121.22 | 408
7 | C#CCn1cc(-c2ccnc(Nc3cc(NC(=O)C=C)c(N(C)CCN(C)C)cc3OC)n2)c2ccccc21 [Example 140, N-(2-((2-(dimethylamino)ethyl)(methyl)amino)-4-methoxy-5-((4-(1-(prop-2-yn-1-yl)-1H-indol-3-yl)pyrimidin-2-yl)amino)phenyl)acrylamide] | – | – | – | – | – | – | – | – | – | – | – | – | 8.56 | 0.58 | 14.76 | – | – | 2.66 | 216.69 | 576
8 | C=CC(=O)Nc1cc(Nc2nccc(-c3cn(S(=O)(=O)N(C)C)c4ccccc34)n2)c(OC)cc1N(C)CCN1CCCC1 [Example 142, N-(5-((4-(1-(N,N-dimethylsulfamoyl)-1H-indol-3-yl)pyrimidin-2-yl)amino)-4-methoxy-2-(methyl(2-(pyrrolidin-1-yl)ethyl)amino)phenyl)acrylamide] | – | – | – | – | – | – | – | – | – | – | – | – | 1.8 | 0.23 | 7.83 | – | – | 3.16 | 37.53 | 119
9 | C=CC(=O)Nc1cc(Nc2ncc(C(F)(F)F)c(-c3cn(S(=O)(=O)N(C)C)c4cc(OC)ccc34)n2)c(OC)cc1N(C)CCN(C)C [Example 143, N-(2-((2-(dimethylamino)ethyl)(methyl)amino)-5-((4-(1-(N,N-dimethylsulfamoyl)-6-methoxy-1H-indol-3-yl)-5-(trifluoromethyl)pyrimidin-2-yl)amino)-4-methoxyphenyl)acrylamide] | – | – | – | – | – | – | – | – | – | – | – | – | 4.18 | 0.44 | 9.50 | – | – | 8.29 | 45.44 | 377
10 | C=CC(=O)Nc1cc(Nc2nccc(-c3cn(C4CC4)c4ccccc34)n2)c(OC)cc1N(C)CCNC [Metabolite of Example 26] | – | – | 16.4 | 0.5 | 77.4 | – | 126 | – | 6 | – | – | – | – | – | – | – | 2060 | – | – | –
